{"source": "patent US12251373B2", "about": "“Compounds and methods of treating retinal degeneration” (CASE WESTERN RESERVE UNIVERSITY, priority 2017, dated 2025)", "key": {"[1]": {"system": "C57BL/6 mice", "test": "Bw measurements, long-term toxicity by daily i.p. injections", "assay_type": "in vivo", "settings": "100 or 200 mg kg−1 bw daily i.p. Day 14 to 38, vs DMSO", "experimental": "To estimate the long-term toxicity of YC-001 in mice, we administered YC-001 to C57BL/6 mice by daily i.p. injections from Day 14 to 38 after birth with one of two doses, either 100 mg kg^−1 or 200 mg kg^−1 bw. Equivalent volumes of DMSO were injected into control groups. Bws of treated mice were measured daily. Each dosage group contained 3 mice including males and females."}, "[2]": {"system": "S. typhimurium TA1535, TA97a, TA98, TA100 and E. coli WP2", "test": "Micro Ames test", "settings": "five bacteria strains, with or without S9", "experimental": "To determine the potential genotoxicity of YC-001, a Micro Ames test was performed by the Charles River Laboratories, Inc. The S9 microsomal fraction was obtained from Moltox Molecular Toxicology, Inc. (Boone, NC, USA). A premixture was prepared including 25 μL of S9 mix (10% v/v S9 fraction in 8 mM MgCl2, 33 mM KCl, 100 mM sodium phosphate buffer, pH 7.4, +S9) or phosphate buffer (0.2 M sodium phosphate, pH 7.4, 0S9), 5 μL of bacterial culture (>1000×10^6 bacteria mL^−1) and 100 μL of molten top agar supplemented with 0.05 mM biotin and minimal histidine (0.05 mM) and minimal tryptophan (0.05 mM). The 24-well plates were prepared by adding 1.3 mL of minimal bottom agar (1.3% agar, Vogel-Bonner medium E and 0.25% glucose) to each well. A 10 μL aliquot of YC-001 working solution/negative/positive control was added to each well followed by addition of 130 μL of the premixture. The plates kept on a leveled surface for 1 h while the top agar solidified, then were incubated at 37° C. for 72 h. After this period, plates were stored at 4° C. before revertant colony counts were manually recorded using an inverted microscope. […]"}, "[3]": {"test": "Metabolic stability in mouse liver microsomes", "assay_type": "in vitro ADME", "settings": "5 μM, with NADPH, vs verapamil", "experimental": "A standard metabolic stability assay was performed in the presence of mouse or human liver microsomes. YC-001 (5 μM) was incubated with the microsomes (0.125 mg mL^−1) resuspended in 0.2 mL of PBS buffer, pH 7.4 composed of 10 mM Na2HPO4, 1.8 mM KH2PO4, 137 mM NaCl, and 2.7 mM KCl. The enzymatic reaction to produce oxidized metabolites was initiated by addition of NADPH (1 mM). Samples were incubated at 37° C. for up to 240 min. Incubation without the cofactor was conducted in parallel to assess NADPH-independent clearance. The reactions were stopped with 0.2 mL of methanol followed by 0.3 mL chloroform. Residual YC-001 was extracted by vigorous shaking. To facilitate phase separation, the samples were spun down for 2 min, 15,000×g. The chloroform fraction was collected, dried down, and the extracted organic compounds were redissolved in 0.2 mL of methanol. To quantify YC-001, the samples were injected onto an Eclipse XDB-C18 column (4.6×150 mm, 5 μm) (Agilent Technologies) equilibrated with solvent composed of 30% acetonitrile in water (v/v), and 0.1% formic acid. YC-001 was eluted in a gradient of acetonitrile in water (30-100%) developed within 15 min at a flow rate of 1 mL min^−1, detected at 350 nm, and quantified by correlating peak areas with known quantities of an original synthetic standard. […]"}}, "data": [{"smiles": "O=C1OCC(c2ccc(Cl)s2)=C1c1cccs1", "note": "[YC-001]", "values": [{"measurement": "behavioral or bw growth changes", "setting": "[1]", "result": "no obvious behavioral or bw growth changes"}, {"measurement": "Ames bacterial mutation test result", "setting": "[2]", "result": "negative"}, {"measurement": "initial clearance in liver microsomes", "setting": "[3]", "result": "even higher initial clearance"}]}]}
